Data reported in patent publication US7087643B2, “Carbamate compounds for use in preventing or treating neuropathic pain and cluster and migraine headache-associated pain” (Ortho-McNeil Pharmaceutical Inc., priority 2001, dated 2006).

Experiments:
[1] = tested on: L5 and L6 spinal nerve ligated rats (mechanical allodynia); test: Antiallodynic activity, Chung model, electronic Von Frey probes; format: in vivo, rat (Rj: Wistar (Han)); details: for % Change (force required to induce paw-withdrawal vs controls): ligatured paw
Excerpt: (§1) The procedure used to test the antiallodynic activity of a compound of Formula (I) was the procedure for the measurement of allodynia found in the Chung Model (Kim S. H. and Chung J. M., An Experimental Model for Peripheral Neuropathy Produced by Segmental Spinal Nerve Ligation in the Rat, Pain, 1992, 50, 355–363).
Pathogen-free, male Rj: Wistar (Han) rats (300–380 g) were purchased from Elevage Janvier, 53940 Le Genest-Saint-Isle, France. The animals were maintained on a 12-h light/dark cycle (lights on from 7:00–19:00) in a controlled ambient temperature of 21±1° C., and relative humidity maintained at 40–70%. The animals had free access to food (UAR 113) and tap water until tested.
Rats were anesthetized (sodium pentobarbital 40 mg/kg i.p.). A ligature was tied tightly around the left L5 and L6 spinal nerves. The rats received an i.m. injection of 50 000 IU Penicillin (Diamant®) and were allowed to recover. This procedure results in mechanical allodynia in the left hind paw. Two weeks after the surgery, when the allodynic state was fully developed, rats were submitted consecutively to tactile stimulation of both the non-lesioned and the lesioned hindpaws.
The animals were placed on an elevated grid floor in Plexiglass boxes (19×11.5×13 cm). The tip of an electronic Von Frey probe (Bioseb, Model 1610) was then applied with increasing pressure to the lesioned and non-lesioned hindpaws and the force required to induce paw-withdrawal was automatically recorded. Prior to receiving drug treatment all animals were submitted to tactile stimulation and assigned to treatment groups matched on the basis of their pain response. This procedure was carried out 3 times for each paw and the mean paw force was calculated to provide basic scores per animal. Data were expressed as percent change (means±SEM) of effectiveness from the controls. Statistical analysis was done using non-paired and paired Student's t tests.
As summarized in Table 2 below, the enantiomer of Formula (Ic) was evaluated at the doses 10, 30 and 100 mg/kg (n=8), administered p.o. in a volume of 5 mL/kg. Morphine ([…]) was used as reference substance. Control animals received a p.o. administration of vehicle. The test was performed blind 30, 60 and 90 minutes after drug administration.

[2] = tested on: L5 spinal nerve ligated rats (mechanical allodynia, Chung model of neuropathic pain); test: Antiallodynic activity, Chung model, manually applied von Frey probes; format: in vivo, rat (Sprague-Dawley); details: for % Maximum Possible Effect: time of peak effect
Procedure: as §1
Pathogen-free, male albino Sprague-Dawley rats, 200 g, were purchased from Harlan Industries (Indianapolis, Ind.) and maintained on a 12-h light/dark cycle (lights on at 06:00 h) in a climate-controlled room with food and water available ad libitum up to the time of the testing and food withdrawn 18 hr prior to testing.
The rats were anesthetized with isoflurane inhalant anesthesia. The left lumbar spinal nerve at the level of L5 was tightly ligated (4-0 silk suture) distal to the dorsal root ganglion and prior to entrance into the sciatic nerve, as described by Kim and Chung. The incisions were closed and the rats were allowed to recover under conditions described above. This procedure results in mechanical allodynia in the left hind paw. The sham operation, when performed, consisted of a similar surgical procedure lacking only the final ligation of the spinal nerve. Mechanical (tactile) allodynia was assessed by recording the pressure at which the affected paw (ipsilateral to the site of nerve injury) was withdrawn from graded stimuli (von Frey filaments ranging from 4.0 to 148.1 mN) applied by hand perpendicularly to the plantar surface of the paw (between the footpads) through wire-mesh observation cages. A paw withdrawal threshold (PWT) was determined by sequentially increasing and decreasing the stimulus strength and analyzing withdrawal data using a Dixon non-parametric test, as described by Chaplan et al (Chaplan S. R., Bach F. W., Pogrel J. W., Chung J. M. and Yaksh T. L., Quantitative Assessment of Tactile Allodynia in the Rat Paw, J Neurosci Meth, 1994, 53, 55–63). Normal rats, sham operated rats, and the contralateral paw of L5 ligated rats withstand at least 148.1 mN (equivalent to 15 g) of pressure without responding. […]

Compound | % Change (force required to induce paw-withdrawal vs controls) ([1]; 10 mg/kg p.o., 60 minute post-dosing, n=8) [%] | % Change (force required to induce paw-withdrawal vs controls) ([1]; 30 mg/kg p.o., 60 minute post-dosing, n=8) [%] | % Change (force required to induce paw-withdrawal vs controls) ([1]; 100 mg/kg p.o., 60 minute post-dosing, n=8) [%] | Effect on non-ligatured paw withdrawal force ([1]; 10, 30 and 100 mg/Kg p.o., 60 minute post-dosing) | Anti-allodynic effect at 90 minutes post-dosing ([1]; 10, 30 and 100 mg/Kg p.o., 90 minutes post-dosing) | % Maximum Possible Effect ([2]; 30 mg/Kg po, 30 minutes after oral dosing, n=5) [%] | % Maximum Possible Effect ([2]; 100 mg/Kg po, 30 to 60 minutes after oral dosing, n=10) [%] | Duration of antiallodynic response ([2]; 30 and 100 mg/Kg po, responses measured at 0.5, 1, 2 and 4 hours post dosing) | % Change (force required to induce paw-withdrawal vs controls) ([1]; 128 mg/Kg morphine positive control) [%]
NC(=O)OC[C@H](OC(N)=O)c1ccccc1Cl [Formula (Ic)] | 69 | 115 | 88 | without affecting the non-ligatured paw | no longer present by 90 minutes post-dosing | 0 | 25.7 | responses returned to baseline by one hour | –
CN1CC[C@]23c4c5ccc(O)c4O[C@H]2[C@@H](O)C=C[C@H]3[C@H]1C5 [morphine, reference compound] | – | – | – | – | – | – | – | – | 38
